Laboratory results: US9133182B2, “Selective androgen receptor modulators” (Radius Health, Inc., priority 2010, dated 2015)

Legend:
[1] = test system: immature, castrated rat (levator ani and bulba cavernous, LABC); assay: In vivo rat Herschberger assay, LABC weight; parameters: key: no = no activity observed at highest dose tested.; yes = increased LABC weight relative to castrated vehicle control; details: once daily oral gavage for 4 days, maximum tested dose between 1 mg/kg and 30 mg/kg, Table 1
Description: In Vivo Rat Model of Androgen and Anabolic Activity-Rat Herschberger Assay
The following is a typical procedure of the in vivo evaluation of the selective androgens of this invention. In particular, this assay looks primarily at the ability of the selective androgens of this invention to increase muscle size in an immature, castrated rat. In addition, androgenic effects are looked at primarily by weighing the prostate and seminal vesicles. Selective compounds will show a greater increase in the levator ani relative to the prostate and seminal vesicles when compared to testosterone treated, castrated animals or to intact animals that have not been treated. Immature Sprague Dawley male rats were obtained Charles River Laboratories (Stoneridge, N.Y.). All animals were maintained in a temperature and humidity controlled room with a 12 hr light: 12 hr dark cycle, with ad lib access to food (TD 291615, Teklad, Madison, Wis.) and water. Rats were anesthetized and orchidectomized (GDX) or sham surgery (SHAM) was performed. After a 7-day recovery period, the animals were randomized according to weight and assigned to treatment groups (n=5), SHAM, OVX+vehicle, OVX+Cpd treated. Testosterone propionate (TP 1 mg/kg in 5% DMSO/95% corn oil) was administered by once daily subcutaneous injections, while the compounds of the invention are dosed in vehicle (0.5% carboxymethylcellulose) was administered by once daily oral gavage. The rats were then dosed once daily for 4 days. All animals were euthanized via carbon dioxide inhalation 24 hs after the last dose. The prostate, seminal vesicle and levator ani and bulba cavernous (LABC) tissues were removed, weighed and recorded. An increase in mean LABC indicates anabolic activity for that particular compound with regard to oral dosing typically at a maximum tested dose of between 1 mg/kg and 30 mg/kg—see Table 1.

androgen receptor = androgen receptor (Rattus norvegicus (Rat), UniProt P15207); assay: androgen receptor binding assay (fluorescence polarization, Invitrogen); details: AR-Fluormone complex, 4 h at room temperature
Procedure: The assay was performed as specified by the manufacturer (Invitrogen, Madison, Wis.). Briefly, 1 μl of 10 mM compound was added to 500 μl of AR screening buffer in a 1.5 ml eppendorf tube to make a 2×10^−5M stock. 10-fold serial dilutions of the test compounds were prepared ranging in concentration from 10^−5M to 10^−12M. Each dilution was added in triplicate to a black 384-microtiter plate. The test compounds will be diluted 2-fold in the final reaction. 2×AR-Fluormone™ complex was prepared with 2 nM Flourmone AL Green™ and 30 nM AR. 25 μl of 2×complex was aliquoted to each reaction well, such that the final reaction volume was 50 μl per well. Plate was sealed with a foil cover and incubated in the dark at room temperature for 4 h. Polarization values for each well were measured. The polarization values were plotted against the concentration of the test compound. […] As a control, a competition curve for R1881 (methyltrienolone) was performed for each assay.

Sequence of androgen receptor (P15207 651-902): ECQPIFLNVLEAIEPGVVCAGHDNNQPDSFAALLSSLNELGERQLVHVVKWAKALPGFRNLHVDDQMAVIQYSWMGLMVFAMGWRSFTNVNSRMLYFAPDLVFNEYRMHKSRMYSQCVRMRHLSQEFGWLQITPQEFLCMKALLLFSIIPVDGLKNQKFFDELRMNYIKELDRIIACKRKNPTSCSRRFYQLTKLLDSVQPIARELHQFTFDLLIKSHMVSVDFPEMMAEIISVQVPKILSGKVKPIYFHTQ

N#Cc1ccc(N2C(=O)CC[C@@H]2[C@H](O)C(F)(F)F)cc1C(F)(F)F [Example 1, 4-((R)-2-oxo-5-((S)-2,2,2-trifluoro-1-hydroxyethyl)pyrrolidin-1-yl)-2-(trifluoromethyl)benzonitrile]
Oral activity in Herscheberger assay on LABC weight [1]: yes | IC50 (androgen receptor; Table 1): 14 nM

N#Cc1ccc(N2C(=O)CC[C@@H]2[C@@H](O)C(F)(F)F)cc1C(F)(F)F [Example 2, 4-((R)-2-oxo-5-((R)-2,2,2-trifluoro-1-hydroxyethyl)pyrrolidin-1-yl)-2-(trifluoromethyl)benzonitrile]
IC50 (androgen receptor; Table 1): 100 nM

Cc1c(N2C(=O)CC[C@@H]2[C@H](O)C(F)(F)F)ccc(C#N)c1C(F)(F)F [Example 3, 3-methyl-4-((R)-2-oxo-5-((S)-2,2,2-trifluoro-1-hydroxyethyl)pyrrolidin-1-yl)-2-(trifluoromethyl)benzonitrile]
Oral activity in Herscheberger assay on LABC weight [1]: yes | IC50 (androgen receptor; Table 1): 11 nM

Cc1c(N2C(=O)CC[C@@H]2[C@@H](O)C(F)(F)F)ccc(C#N)c1C(F)(F)F [Example 4, 3-methyl-4-((R)-2-oxo-5-((R)-2,2,2-trifluoro-1-hydroxyethyl)pyrrolidin-1-yl)-2-(trifluoromethyl)benzonitrile]
IC50 (androgen receptor; Table 1): 120 nM

O=C1CC[C@H]([C@H](O)C(F)(F)F)N1c1ccc2nnsc2c1 [Example 5, (R)-1-(Benzo[d][1,2,3]thiadiazol-6-yl)-5-((S)-2,2,2-trifluoro-1-hydroxyethyl)pyrrolidin-2-one]
IC50 (androgen receptor; Table 1): 530 nM

O=C1CC[C@H]([C@@H](O)C(F)(F)F)N1c1ccc2nnsc2c1 [Example 6, (R)-1-(Benzo[d][1,2,3]thiadiazol-6-yl)-5-((R)-2,2,2-trifluoro-1-hydroxyethyl)pyrrolidin-2-one]
Binding IC50 (nM) (androgen receptor; Table 1): No binding

N#Cc1ccc(N2C(=O)OC[C@@H]2[C@H](O)C(F)(F)F)cc1C(F)(F)F [Example 7, 4-((R)-2-oxo-4-((S)-2,2,2-trifluoro-1-hydroxyethyl)oxazolidin-3-yl)-2-(trifluoromethyl)benzonitrile]
Oral activity in Herscheberger assay on LABC weight [1]: yes | IC50 (androgen receptor; Table 1): 50 nM

N#Cc1ccc(N2C(=O)OC[C@@H]2[C@@H](O)C(F)(F)F)cc1C(F)(F)F [Example 8, 4-((R)-2-oxo-4-((R)-2,2,2-trifluoro-1-hydroxyethyl)oxazolidin-3-yl)-2-(trifluoromethyl)benzonitrile]
IC50 (androgen receptor; Table 1): > 1000 nM

N#Cc1ccc(N2C(=O)OC[C@H]2[C@@H](O)C(F)(F)F)cc1Cl [Example 10, 2-chloro-4-((S)-2-oxo-4-((R)-2,2,2-trifluoro-1-hydroxyethyl)oxazolidin-3-yl)benzonitrile]
IC50 (androgen receptor; Table 1): > 1000 nM

Cc1c(N2C(=O)OC[C@@H]2[C@@H](O)C(F)(F)F)ccc(C#N)c1Cl [Example 12, 2-chloro-3-methyl-4-((R)-2-oxo-4-((R)-2,2,2-trifluoro-1-hydroxyethyl)oxazolidin-3-yl)benzonitrile]
IC50 (androgen receptor; Table 1): 933 nM

Cc1c(N2C(=O)O[C@H](C)[C@@H]2[C@H](O)C(F)(F)F)ccc(C#N)c1Cl [Example 15, 2-chloro-3-methyl-4-((4S,5R)-5-methyl-2-oxo-4-((S)-2,2,2-trifluoro-1-hydroxyethyl)oxazolidin-3-yl)benzonitrile]
IC50 (androgen receptor; Table 1): 200 nM

Cc1c(N2C(=O)O[C@H](C)[C@@H]2[C@@H](O)C(F)(F)F)ccc(C#N)c1Cl [Example 16, 2-chloro-3-methyl-4-((4S,5R)-5-methyl-2-oxo-4-((R)-2,2,2-trifluoro-1-hydroxyethyl)oxazolidin-3-yl)benzonitrile]
IC50 (androgen receptor; Table 1): > 1000 nM

Cc1c(N2C(=O)O[C@@H](C)[C@@H]2[C@@H](O)C(F)(F)F)ccc(C#N)c1Cl [Example 18, 2-chloro-3-methyl-4-((4S,5S)-5-methyl-2-oxo-4-((R)-2,2,2-trifluoro-1-hydroxyethyl)oxazolidin-3-yl)benzonitrile]
IC50 (androgen receptor; Table 1): 700 nM

C[C@@H]1OC(=O)N(c2ccc(C#N)c(C(F)(F)F)c2)[C@H]1[C@H](O)C(F)(F)F [Example 19, 4-((4S,5S)-5-methyl-2-oxo-4-((S)-2,2,2-trifluoro-1-hydroxyethyl)oxazolidin-3-yl)-2-(trifluoromethyl)benzonitrile]
Oral activity in Herscheberger assay on LABC weight [1]: yes

C[C@@H]1OC(=O)N(c2ccc(C#N)c(C(F)(F)F)c2)[C@H]1[C@@H](O)C(F)(F)F [Example 20, 4-((4S,5S)-5-methyl-2-oxo-4-((R)-2,2,2-trifluoro-1-hydroxyethyl)oxazolidin-3-yl)-2-(trifluoromethyl)benzonitrile]
Oral activity in Herscheberger assay on LABC weight [1]: yes

Cc1c(N2C(=O)O[C@@H](C)[C@@H]2[C@H](O)C(F)(F)F)ccc(C#N)c1C(F)(F)F [Example 23, 3-methyl-4-((4S,5S)-5-methyl-2-oxo-4-((S)-2,2,2-trifluoro-1-hydroxyethyl)oxazolidin-3-yl)-2-(trifluoromethyl)benzonitrile]
IC50 (androgen receptor; Table 1): 33 nM

Cc1c(N2C(=O)O[C@@H](C)[C@@H]2[C@@H](O)C(F)(F)F)ccc(C#N)c1C(F)(F)F [Example 24, 3-methyl-4-((4S,5S)-5-methyl-2-oxo-4-((R)-2,2,2-trifluoro-1-hydroxyethyl)oxazolidin-3-yl)-2-(trifluoromethyl)benzonitrile]
IC50 (androgen receptor; Table 1): > 1000 nM

O=C1CC[C@H]([C@@H](O)C(F)(F)F)N1c1ccc(Cl)c(Cl)c1 [Example 28, (R)-1-(3,4-dichlorophenyl)-5-((R)-2,2,2-trifluoro-1-hydroxyethyl)pyrrolidin-2-one]
IC50 (androgen receptor; Table 2): > 1000 nM

N#Cc1ccc(N2C(=O)CC[C@@H]2[C@@H](O)C(F)(F)F)cc1Cl [Example 33, 2-chloro-4-((R)-2-((R)-2,2,2-trifluoro-1-hydroxyethyl)-5-oxopyrrolidin-1-yl)benzonitrile]
IC50 (androgen receptor; Table 2): 65 nM

Cc1c(N2C(=O)O[C@H](C)[C@@H]2[C@H](O)C(F)(F)F)ccc(C#N)c1C(F)(F)F [Example 34, 4-((4S,5R)-4-((S)-2,2,2-trifluoro-1-hydroxyethyl)-5-methyl-2-oxooxazolidin-3-yl)-2-(trifluoromethyl)-3-methylbenzonitrile]
IC50 (androgen receptor; Table 2): > 1000 nM

Cc1c(N2C(=O)O[C@H](C)[C@@H]2[C@@H](O)C(F)(F)F)ccc(C#N)c1C(F)(F)F [Example 35, 4-((4S,5R)-4-((R)-2,2,2-trifluoro-1-hydroxyethyl)-5-methyl-2-oxooxazolidin-3-yl)-2-(trifluoromethyl)-3-methylbenzonitrile]
IC50 (androgen receptor; Table 2): > 10000 nM

C[C@H]1OC(=O)N(c2ccc(C#N)c(C(F)(F)F)c2)[C@H]1[C@H](O)C(F)(F)F [Example 36, 4-((4S,5R)-4-((S)-2,2,2-trifluoro-1-hydroxyethyl)-5-methyl-2-oxooxazolidin-3-yl)-2-(trifluoromethyl)benzonitrile]
IC50 (androgen receptor; Table 2): > 1000 nM

C[C@H]1OC(=O)N(c2ccc(C#N)c(C(F)(F)F)c2)[C@H]1[C@@H](O)C(F)(F)F [Example 37, 4-((4S,5R)-4-((R)-2,2,2-trifluoro-1-hydroxyethyl)-5-methyl-2-oxooxazolidin-3-yl)-2-(trifluoromethyl)benzonitrile]
IC50 (androgen receptor; Table 2): > 1000 nM

C[C@H]1OC(=O)N(c2ccc(C#N)c(Cl)c2)[C@H]1[C@H](O)C(F)(F)F [Example 38, 2-chloro-4-((4S,5R)-4-((S)-2,2,2-trifluoro-1-hydroxyethyl)-5-methyl-2-oxooxazolidin-3-yl)benzonitrile]
IC50 (androgen receptor; Table 2): 150 nM

C[C@H]1OC(=O)N(c2ccc(C#N)c(Cl)c2)[C@H]1[C@@H](O)C(F)(F)F [Example 39, 2-chloro-4-((4S,5R)-4-((R)-2,2,2-trifluoro-1-hydroxyethyl)-5-methyl-2-oxooxazolidin-3-yl)benzonitrile]
IC50 (androgen receptor; Table 2): 550 nM
